Assay [1] deals with T1, recombinant CaM (Homo sapiens, UniProt P0DP23).
T1 construct: purchased Sigma Merck C4874
Description: Calmodulin pull-down with peptides synthesised on cellulose membrane. Type of assay: binding. The following applies: peptide on cellulose membrane; 1 μg recombinant CaM, 1 mM CaCl2, overnight 4°C; immunoblot; Figure 3B. The protocol: To test for calmodulin (CaM) binding, recombinant CaM was pulled down after incubation with SN‐db‐short or a peptide representing the CaM binding site in CaMKII ([…], positive control). SN‐db‐short and the CaM‐binding peptide were synthesised in triplicates onto a cellulose membrane by a Multipep automated peptide synthesiser (CEM Corporation, Matthews, NC, USA). The specific spots of the membrane corresponding to SN‐db‐short or the positive control peptide were cut and placed into separate tubes. The membrane pieces were first rehydrated in 100% methanol and subsequently incubated with 1 μg of recombinant CaM (C4874, Sigma Merck) in CaMKII binding buffer supplemented with CaCl2 (50 mM Hepes, 150 mM NaCl, 15 mM MgCl2, 1 mM CaCl2, 0.1% Triton X‐100, 1% BSA) overnight at 4°C with rotation. […]
Lysates and immunoprecipitates were separated on 12% or 4%–15% Criterion TGX precast gels (5671044 and 5671084, Biorad, Hercules, CA, USA), blotted onto PVDF membranes (1704157 by Biorad or 03010040001 by Sigma Merck) and reversibly stained with Revert 700 Total Protein Stain (Li‐COR Biosciences, Lincoln, NE, USA). […] Blots were developed using ECL (RPN2236, GE Healthcare, Chicago, IL, USA) after four washing steps of 10 min in TBS‐t and the chemiluminescence signals were detected by Azure Biosystems 600 (Dublin, CA, USA). […] ImageJ [13] was used to quantify the blots.

Assay [2] concerns adult rat cardiomyocytes. The assay is described as follows: Ca2+ imaging (sparks, waves, transients) with ISO stimulation. It counts as cell-based. The following applies: ISO 100 nM. The procedure:
Male Wistar rats (Janvier, France) weighing ~300 g were sedated in an anaesthesia chamber by inhalation of 5% isoflurane and 95% O2. The heart was excised under deep surgical anaesthesia, cannulated, and then retrogradely perfused through the aorta on a modified Langendorff setup with cell isolation solution containing (in mM, pH adjusted to 7.4, 37°C): NaCl 130, Hepes 25, D‐glucose 22, KCl 5.4, MgCl2 0.5, NaH2PO4 0.4, and a flow rate of 4 mL/min. After the heart was cleaned of blood, collagenase type II (2 mg/mL, Worthington Biochemical Corp, Lakewood, NJ, USA) was added to the perfusate, and the hearts digested for ~10 min. Following digestion, hearts were cut down, and the left ventricle dissected into pieces, which were transferred into 10 mL cell isolation solution with 250 μL BSA (40 mg/mL) and ~0.2 mg Deoxyribonuclease I (Worthington Biochemical Corporation, Lakewood, NJ, USA). After light agitation (~2 min), the supernatant was filtered (200 μm nylon mesh), and isolated cardiomyocytes were allowed to sediment by gravity. The cardiomyocytes were then washed in isolation buffer containing 1 mg/mL BSA, with a stepwise increase in Ca^2+ concentration up to 0.2 mM. Animal experiments were approved by the Norwegian Research Authority (FOTS ID: 30114). Adult rat cardiomyocytes were treated with 10 μM of SN, SN‐db‐short or scram in 0.2 mM Ca^2+ cell isolation solution for 1 h. These loading concentrations are higher than those used in our previous studies of SN, where we had sought to examine endogenous, circulating levels, rather than potentially therapeutic levels applied exogenously. […] Ca^2+ transients were recorded in linescan mode using a Zeiss LSM 7 Live confocal microscope (Jena, Germany), at a frame rate of 1.5 ms and a pixel size of 0.16 μm. These recordings were normalised to resting fluorescence values to create F/F0 images and assess Ca^2+ transient amplitude. The rate of Ca^2+ transient decline was assessed by measurements of the decay time constant (Tau). Spontaneous sparks and waves were measured during a 9 s pause in the electrical excitation. […]

The structures appear in SMILES notation. Peptide text beside a SMILES is read from it. * marks the point of attachment. Biotin = O=C1N[C@H]2[C@H](CS[C@H]2CCCCC(=O)*)N1; Ahx = NCCCCCC(=O)O

In the case of `CC(C)C[C@H](NC(=O)[C@H](CCC(=O)O)NC(=O)[C@H](CCC(N)=O)NC(=O)[C@H](Cc1ccccc1)NC(=O)[C@H](Cc1ccccc1)NC(=O)[C@H](CO)NC(=O)[C@H](CCC(=O)O)NC(=O)[C@H](Cc1ccccc1)NC(=O)[C@@H](NC(=O)[C@H](C)NC(=O)[C@H](CC(C)C)NC(=O)[C@H](CO)NC(=O)[C@H](CCC(N)=O)NC(=O)[C@@H]1CCCN1C(=O)[C@@H](NC(=O)[C@H](Cc1ccc(O)cc1)NC(=O)[C@H](CCC(N)=O)NC(=O)[C@H](CCC(=O)O)NC(=O)CCCCCNC(=O)CCCC[C@@H]1SC[C@@H]2NC(=O)N[C@@H]21)[C@@H](C)O)[C@@H](C)O)C(=O)NCC(=O)N[C@@H](CCCCN)C(=O)O` [SN‐db‐short] ({Biotin-Ahx}-EQYTPQSLATFESFFQELGK-OH; N-terminus and C-terminus assumed), in assay [1], the “CaM binding (pull-down)” value is “no CaM was detected”. Besides, the “ISO-induced increase of Ca2+ transient amplitude and acceleration of Ca2+ transient decay” value in assay [2] (10 μM peptide 1 h, field stimulation 1 Hz, Figure 5B–D, n = 22–73, 3–6 rats) is given as “significantly attenuated”. The “Ca2+ spark incidence under ISO” value in assay [2] (10 μM peptide 1 h pre-treatment, 9 s pause after 1 Hz pacing, Figure 4D, n = 35–85 cells from 3 to 6 rats) is given as “strong reduction”. The “Ca2+ wave incidence under ISO” value in assay [2] (10 μM peptide 1 h pre-treatment, 9 s pause after 1 Hz pacing, Figure 4E, n = 35–66 cells from 3 to 5 rats) is recorded as “strong reduction”.

Source of the values: PMC12544700, “Identification of a Small Secretoneurin Derivative That Inhibits CaMKIIδ Activity” (Journal of Cellular and Molecular Medicine, 2025).
